We go through six compounds from ChEMBL document CHEMBL1201862, “PubChem BioAssay data set” (2004).

Among the test systems are 786-0; CCRF-CEM; HCT-116; HCT-15; HOP-62; HOP-92; K562; MDA-MB-231; MOLT-4; Malme-3M; NCI-H226; NCI-H23; OVCAR-8; SF-295; SF-539; SK-MEL-28; SK-MEL-5; SNB-19; SNB-75; UACC-257.
Common to all, as to experiment: NCI tumour cell line growth inhibition, 48 h

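Cultured in 96-well plates, cells were exposed to test compound for 48 hours across five concentrations. GI50 = concentration required for 50% inhibition of growth.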 The source made the active and inactive calls. No stated cut-off is given here; in the data, active = GI50 up to about 1.1 µM and inactive = higher.

Turning to `ClCCN(CCCl)c1ccc(/C=N/Nc2ccnc3ccccc23)cc1`, the GI50 in the assay with 786-0 was 1.78 µM (inactive); in the assay on CCRF-CEM, 1.49 µM (inactive); in the assay on HCT-116, 1.21 µM (inactive); in the assay with HCT-15, 1.35 µM; with HOP-62, 2.07 µM (inactive); with HOP-92, 1.64 µM (inactive). Moreover, the GI50 with K562 is 1.39 µM (inactive); in the assay on MDA-MB-231, 1.89 µM (inactive); in the assay with MOLT-4, 1.13 µM (inactive); in the assay on Malme-3M, 1.49 µM (inactive); with NCI-H226, 1.89 µM (inactive); in the assay on NCI-H23 it was 2.01 µM (inactive). Also, the GI50 in the assay with OVCAR-8 is 1.41 µM (inactive); with SF-295 it was 1.31 µM (inactive); in the assay with SF-539, 1.41 µM (inactive); in the assay with SK-MEL-28, 1.63 µM (inactive); in the assay with SK-MEL-5, 1.66 µM (inactive); with SNB-19, 2.33 µM (inactive). The values for the GI50 in the assay with SNB-75 and with UACC-257 were 2.17 µM (inactive) and 1.84 µM (inactive), respectively.
`CO/N=C1\CC(C)N2C(=O)C(C(C)C)NC(=O)C(NC(=O)c3c4nc5c(C(=O)NC6C(=O)NC(C(C)C)C(=O)N7C(C)CC(O)C7C(=O)N(C)CC(=O)N(C)C(C(C)C)C(=O)OC6C)ccc(C)c5oc-4c(C)c(=O)c3N)C(CO)OC(=O)C(C)N(C)C(=O)CN(C)C(=O)C12` (stereo not given): the GI50 is 1.01 µM (active) with 786-0; 0.0703 µM (active) in the assay with CCRF-CEM; 0.321 µM (active) in the assay on HCT-116; 7.01 µM in the assay with HCT-15; 1.57 µM (inactive) with HOP-62; 0.753 µM (active) in the assay with HOP-92. For the same compound, the GI50 is 0.159 µM (active) in the assay on K562; 0.656 µM (active) in the assay on MDA-MB-231; 0.222 µM (active) in the assay with MOLT-4; 0.374 µM (active) with Malme-3M; 1.05 µM (active) with NCI-H226; 1.43 µM (inactive) with NCI-H23. The GI50 is 0.617 µM (active) in the assay on OVCAR-8; 1.13 µM (inactive) with SF-295; 0.348 µM (active) in the assay on SF-539; 0.791 µM (active) with SK-MEL-28; 0.174 µM (active) in the assay with SK-MEL-5; 0.684 µM (active) in the assay with SNB-19. The GI50 in the assay with SNB-75 is 0.883 µM (active); in the assay with UACC-257, 0.65 µM (active).
With `Cn1cco/c1=N/c1ccc(Cl)c(Cl)c1`, the GI50 in the assay with 786-0 was > 10 µM (inactive); in the assay with CCRF-CEM, > 10 µM (inactive); with HCT-116 it was > 10 µM (inactive); in the assay on HCT-15 it was greater than 10 µM; in the assay on HOP-62, > 10 µM (inactive); with HOP-92, > 10 µM (inactive). The GI50 with K562, with MDA-MB-231, in the assay with MOLT-4, in the assay on Malme-3M, in the assay with NCI-H226 and with NCI-H23 was > 10 µM (inactive) in each case. Also, the GI50 in the assay with OVCAR-8, in the assay with SF-295, in the assay on SF-539, in the assay with SK-MEL-28, with SK-MEL-5 and in the assay with SNB-19 was > 10 µM (inactive) throughout. For the same compound, the GI50 in the assay with SNB-75 and in the assay with UACC-257 was > 10 µM (inactive) each time.
Consider `COc1ccc(-c2cs/c(=N\c3ccccc3)n2CC(O)c2ccc([N+](=O)[O-])cc2)cc1` (stereo not given), for which the GI50 with 786-0 was > 100 µM (inactive); in the assay on CCRF-CEM it was > 71.1 µM (inactive); in the assay with HCT-116, > 29.9 µM (inactive); in the assay with HCT-15, greater than 100 µM; with HOP-62, > 100 µM (inactive); in the assay with HOP-92, > 100 µM (inactive). For the same compound, the GI50 in the assay with K562 is 3.84 µM (inactive); in the assay on MDA-MB-231, > 100 µM (inactive); in the assay on MOLT-4, 4.06 µM (inactive); with Malme-3M it was > 100 µM (inactive); in the assay on NCI-H226, > 100 µM (inactive); in the assay on NCI-H23, > 100 µM (inactive). The GI50 is > 100 µM (inactive) in the assay on OVCAR-8; > 100 µM (inactive) in the assay on SF-295; > 100 µM (inactive) in the assay on SF-539; > 100 µM (inactive) in the assay with SK-MEL-28; 4.04 µM (inactive) in the assay with SK-MEL-5; > 100 µM (inactive) with SNB-19. For the same compound, the GI50 was > 100 µM (inactive) with SNB-75 and > 76.9 µM (inactive) in the assay on UACC-257.
Turning to `Cc1ccc(-c2cc(-c3ccc(Cl)cc3)nc(/N=C3\C(=O)N(CN4CCCCC4)c4ccc(Cl)cc43)n2)cc1`, the GI50 with 786-0 was 18.9 µM (inactive); with CCRF-CEM, 36.3 µM (inactive); in the assay on HCT-116 it was 23.1 µM (inactive); in the assay with HCT-15 it was 24.4 µM; in the assay on HOP-62 it was 26.3 µM (inactive); in the assay with HOP-92 it was 15.6 µM (inactive). Moreover, the GI50 with K562 was 19.9 µM (inactive); in the assay with MDA-MB-231, 36.2 µM (inactive); with MOLT-4, 11.7 µM (inactive); with Malme-3M it was 84.3 µM (inactive); in the assay on NCI-H226, 39.4 µM (inactive); in the assay with NCI-H23 it was 19.1 µM (inactive). The GI50 in the assay on OVCAR-8 was 18.5 µM (inactive); in the assay with SF-295, 42.2 µM (inactive); in the assay with SF-539, 24.5 µM (inactive); in the assay with SK-MEL-28, 64.1 µM (inactive); in the assay with SK-MEL-5, 19.8 µM (inactive); with SNB-19, 11.2 µM (inactive). Besides, the results for the GI50 with SNB-75 and in the assay on UACC-257 were 42.9 µM (inactive) and 22.9 µM (inactive), respectively.
Regarding `O=C(O)c1ccc(OCc2ccccc2)c(Cl)c1`, the GI50 is > 100 µM (inactive) with 786-0; > 100 µM (inactive) in the assay with CCRF-CEM; > 100 µM (inactive) with HCT-116; greater than 100 µM with HCT-15; > 100 µM (inactive) in the assay with HOP-62; > 100 µM (inactive) in the assay on HOP-92. Besides, the GI50 in the assay on K562, in the assay with MDA-MB-231, in the assay on MOLT-4, in the assay on Malme-3M, in the assay with NCI-H226 and in the assay with NCI-H23 was > 100 µM (inactive) throughout. The GI50 with OVCAR-8, in the assay with SF-295, in the assay on SF-539, in the assay on SK-MEL-28, in the assay with SK-MEL-5 and with SNB-19 was > 100 µM (inactive) each time. The GI50 in the assay on SNB-75 and in the assay with UACC-257 was > 100 µM (inactive) throughout.
